The target of this test is T1, EBP (Homo sapiens, UniProt Q15125).
T1 construct: HEK293T cells were utilized as the source of EBP enzyme; endogenous in cells; host or cells: HEK293T
The test can be described thus: EBP Functional Assay (EBP immunoaffinity LC-MS assay). The test is classed as biochemical. Particulars: EBP enzyme from HEK293T cells; 30 min with inhibitor, then zymosterol-d5 at 37° C. for 4 h; percent conversion by LC-APCI MRM MS. As for the experimental part:
The EBP immunoaffinity (IA) LC-MS assay measures the potency of small molecule inhibitors of EBP by quantifying their concentration-dependent changes in the enzyme's substrate and product using liquid chromatography atmospheric pressure chemical ionization multiple reaction monitoring mass spectrometry (LC-APCI MRM MS). HEK293T cells were utilized as the source of EBP enzyme. The enzyme was incubated with the small molecule inhibitors at variable concentrations for 30 min. Deuterated form of EBP substrate, zymosterol-d5 (Avanti Polar Lipids, Cat #700068P-1 mg), was then added and the plate was incubated at 37° C. for 4 h. Finally, the sterol isomers were extracted and injected to LC-APCI MRM MS. MRM transition used for the quantification for both zymosterol and […] (substrate and product of EBP enzymatic reaction, respectively) is 372.3-203.2, CE 30 and DP 80 in positive ion mode. Percent conversion of the zymosterol-d5 to dehydrolathosterol-d5 was used to derive IC50 curves. Tasin-1 (1′-[(4-Methoxyphenyl)sulfonyl]-4-methyl-1,4′-bipiperidine, CAS 792927-06-1) was used as the reference small molecule inhibitor.
Percent conversion versus the compound concentration data were fit to the following 4-parameter logistic model to generate IC50 curves: […]

Where only a bound is given, the exact number is not on record here.

The term IC50 denotes the midpoint of a concentration-inhibition curve. Lower therefore signals greater potency.

T1 sequence (Q15125 whole entry): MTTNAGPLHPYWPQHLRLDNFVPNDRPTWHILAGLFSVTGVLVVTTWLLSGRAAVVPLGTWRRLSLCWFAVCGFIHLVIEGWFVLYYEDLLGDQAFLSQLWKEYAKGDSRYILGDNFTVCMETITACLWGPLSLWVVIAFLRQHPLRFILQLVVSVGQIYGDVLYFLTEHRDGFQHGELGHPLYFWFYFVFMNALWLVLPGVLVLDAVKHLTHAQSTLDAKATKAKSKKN

Compound `Cc1ccc(S(=O)(=O)N2C[C@H]3C[C@@H](NCC4CCOCC4)C[C@H]3C2)c(C)c1` [Example 1, (3aR,5r,6aS)-2-((2,4-Dimethylphenyl)sulfonyl)-N-((tetrahydro-2H-pyran-4-yl)methyl)octahydrocyclopenta[c]pyrrol-5-amine] had an IC50 below 100 nM.

The compound `Cc1nc(C(F)(F)F)nc(C)c1S(=O)(=O)N1C[C@H]2CN(C3CC4(COC4)C3)C[C@@H]2C1` [Example 61, (3aR,6aR)-2-((4,6-dimethyl-2-(trifluoromethyl)pyrimidin-5-yl)sulfonyl)-5-(2-oxaspiro[3.3]heptan-6-yl)octahydropyrrolo[3,4-c]pyrrole] gave an IC50 below 100 nM. The compound `O=S(=O)(c1ccc(OC(F)F)cc1)N1C[C@H]2C[C@H](NC3CC4(COC4)C3)C[C@H]2C1` [Example 19, (3aR,5s,6aS)-2-((4-(Difluoromethoxy)phenyl)sulfonyl)-N-(2-oxaspiro[3.3]heptan-6-yl)octahydrocyclopenta[c]pyrrol-5-amine] gave an IC50 of 100 to 500 nM. As for `O=S(=O)(c1ccc(OC(F)F)cc1)N1C[C@H]2C[C@H](NC3CCOC3)C[C@H]2C1` (stereo partly drawn) [Example 15, (3aR,5s,6aS)-2-((4-(Difluoromethoxy)phenyl)sulfonyl)-N-(tetrahydrofuran-3-yl)octahydrocyclopenta[c]pyrrol-5-amine], the figure is 100 to 500 nM; as for `Cc1nc(C(F)(F)F)ccc1S(=O)(=O)N1C[C@H]2CN(CC34CCOC(C)(C3)C4)C[C@@H]2C1` (racemic) [Example 53, Rac-(3aR,6aR)-2-((1-methyl-2-oxabicyclo[3.1.1]heptan-5-yl)methyl)-5-((2-methyl-6-(trifluoromethyl)pyridin-3-yl)sulfonyl)octahydropyrrolo[3,4-c]pyrrole], 100 to 500 nM; as for `Cc1ccc(S(=O)(=O)N2C[C@H]3C[C@@H](N4CCC(C)CC4)C[C@H]3C2)c(C)c1` [Example 5, (3aR,5r,6aS)-2-((2,4-Dimethylphenyl)sulfonyl)-5-(4-methylpiperidin-1-yl)octahydrocyclopenta[c]pyrrole], below 100 nM.

As to `Cc1nc(C(F)(F)F)ccc1S(=O)(=O)N1C[C@H]2CN(CC3CCOCC3)C[C@@H]2C1` (racemic) [Example 51, Rac-(3aR,6aR)-2-((2-methyl-6-(trifluoromethyl)pyridin-3-yl)sulfonyl)-5-((tetrahydro-2H-pyran-4-yl)methyl)octahydropyrrolo[3,4-c]pyrrole], the IC50 is below 100 nM. With `O=S(=O)(c1cc(F)cc(F)c1)N1C[C@H]2CN(C3CCOCC3)C[C@H]2C1` [Example 39, (3aR,6aS)-2-((3,5-Difluorophenyl)sulfonyl)-5-(tetrahydro-2H-pyran-4-yl)octahydropyrrolo[3,4-c]pyrrole] the figure was 100 to 500 nM; with `Cc1nc(C(F)(F)F)ccc1S(=O)(=O)N1C[C@H]2CN(C3CC4(COC4)C3)C[C@@H]2C1` (racemic) [Example 50, Rac-(3aR,6aR)-2-((2-methyl-6-(trifluoromethyl)pyridin-3-yl)sulfonyl)-5-(2-oxaspiro[3.3]heptan-6-yl)octahydropyrrolo[3,4-c]pyrrole], below 100 nM. As for `Cc1cc(S(=O)(=O)N2C[C@H]3CN(C4CCOCC4)C[C@H]3C2)n(C)n1` [Example 31, (3aR,6aS)-2-((1,3-dimethyl-1H-pyrazol-5-yl)sulfonyl)-5-(tetrahydro-2H-pyran-4-yl)octahydropyrrolo[3,4-c]pyrrole], the figure is 100 to 500 nM; as for `Cc1nc(C(F)(F)F)ccc1S(=O)(=O)N1C[C@H]2CN(CC34COC(C)(C3)C4)C[C@@H]2C1` (single isomer, unassigned) [Example 56], 100 to 500 nM; as for `COc1ncc(C)cc1S(=O)(=O)N1C[C@H]2C[C@H](NCC3CCOCC3)C[C@H]2C1` [Example 9, (3aR,5s,6aS)-2-((2-Methoxy-5-methylpyridin-3-yl)sulfonyl)-N-((tetrahydro-2H-pyran-4-yl)methyl)octahydrocyclopenta[c]pyrrol-5-amine], 100 to 500 nM. As for `Cc1nc(C(F)(F)F)ccc1S(=O)(=O)N1C[C@H]2C[C@H](NC3CCOCC3)C[C@H]2C1` [Example 28, (3aR,5s,6aS)-2-((2-Methyl-6-(trifluoromethyl)pyridin-3-yl)sulfonyl)-N-(tetrahydro-2H-pyran-4-yl)octahydrocyclopenta[c]pyrrol-5-amine], the figure is below 100 nM. `Cn1nc(C(F)(F)F)cc1S(=O)(=O)N1C[C@H]2CN(C3CCOCC3)C[C@@H]2C1` [Example 46, (3aR,6aR)-2-((1-Methyl-3-(trifluoromethyl)-1H-pyrazol-5-yl)sulfonyl)-5-(tetrahydro-2H-pyran-4-yl)octahydropyrrolo[3,4-c]pyrrole] yielded an IC50 of 100 to 500 nM. Regarding `Cc1cc(S(=O)(=O)N2C[C@H]3CN(C4CCOCC4)C[C@H]3C2)n(C)n1` [Example 49, Rac-(3aR,6aS)-2-((1,3-dimethyl-1H-pyrazol-5-yl)sulfonyl)-5-(tetrahydro-2H-pyran-4-yl)octahydropyrrolo[3,4-c]pyrrole], the IC50 was above 500 nM.

Consider `Cc1nc(C(F)(F)F)ccc1S(=O)(=O)N1C[C@H]2C[C@H](NCC3(C)COC3)C[C@H]2C1` [Example 29, (3aR,5s,6aS)-2-((2-Methyl-6-(trifluoromethyl)pyridin-3-yl)sulfonyl)-N-((3-methyloxetan-3-yl)methyl)octahydrocyclopenta[c]pyrrol-5-amine], for which the IC50 is below 100 nM. As for `O=S(=O)(c1ccc(OC(F)F)cc1)N1C[C@H]2C[C@H](N3CCOCC3)C[C@H]2C1` [Example 13, 4-((3aR,5r,6aS)-2-((4-(Difluoromethoxy)phenyl)sulfonyl)octahydrocyclopenta[c]pyrrol-5-yl)morpholine], the figure is above 500 nM; as for `Cc1nc(C(F)(F)F)ccc1S(=O)(=O)N1C[C@H]2CN(C3CCOCC3)C[C@@H]2C1` (single isomer, unassigned) [Example 48], 100 to 500 nM. `Cc1nc(C(F)(F)F)ccc1S(=O)(=O)N1C[C@H]2CN(CC3COC3)C[C@@H]2C1` (racemic) [Example 52, Rac-(3aR,6aR)-2-((2-methyl-6-(trifluoromethyl)pyridin-3-yl)sulfonyl)-5-(oxetan-3-ylmethyl)octahydropyrrolo[3,4-c]pyrrole] gave an IC50 above 500 nM. With `N#Cc1cc(F)cc(S(=O)(=O)N2C[C@H]3CN(C4CCOCC4)C[C@H]3C2)c1` [Example 33, 3-Fluoro-5-(((3aR,6aS)-5-(tetrahydro-2H-pyran-4-yl)hexahydropyrrolo[3,4-c]pyrrol-2(1H)-yl)sulfonyl)benzonitrile] the figure was above 500 nM; with `O=S(=O)(c1ccc(OC(F)F)cc1)N1C[C@H]2C[C@H](NC3CCOCC3)C[C@H]2C1` [Example 16, (3aR,5s,6aS)-2-((4-(Difluoromethoxy)phenyl)sulfonyl)-N-(tetrahydro-2H-pyran-4-yl)octahydrocyclopenta[c]pyrrol-5-amine], below 100 nM.

Source of the values: patent US20260014119A1, “EMOPAMIL-BINDING PROTEIN INHIBITORS AND USES THEREOF” (BIOGEN MA INC., priority 2022, published 2026).
